Data published in PMC10529594, “Strasseriolides display in vitro and in vivo activity against trypanosomal parasites and cause morphological and size defects in Trypanosoma cruzi” (PLOS Neglected Tropical Diseases, 2023).
Where “and” joins values, the source holds several entries; their conditions need not be identical. Equal entries are not always repeated. Where two headings read alike, the source gives them in different places.

Experiments:
Plasmodium berghei = tested on: Plasmodium berghei; design: method as in PMID 34865639; conditions: Plasmodium berghei murine model; cited from earlier work
[1] = tested on: transgenic Trypanosoma cruzi Brazil strain expressing firefly luciferase; experiment: In vivo efficacy, acute T. cruzi infection in BALB/c mice (luciferase imaging); conditions: for Total counts, Average: vehicle average 8050000
Procedure: In vivo experiments were performed at the Anti-infectives Screening Core Services facility of the New York University School of Medicine. The transgenic Trypanosoma cruzi Brazil strain expressing firefly luciferase was used. Groups of five female BALB/c mice were infected with 2 × 10^6 T. cruzi trypomastigotes. […] Quantification is based on luciferase activity of the parasites after i.p. injection of 150 mg/Kg D-luciferin potassium-salt in PBS. Luminescence is measured on the fifth day using an IVIS Lumina II imager.

T. cruzi epimastigotes = experiment: Quantification of ATP intracellular levels (CellTiter-Glo); format: cell-based, Trypanosoma cruzi; conditions: for ATP content, individual replicates: single replicates
Procedure: ATP was determined using the CellTiter-Glo assay. Optimum readout conditions and linearity of the assay were established for T. cruzi epimastigotes by testing different cell densities. The assay was linear up to 100,000 cells (in 90 μl) per well. 50,000 cells (from log phase cultures) per well were dispensed into 96-well white flat bottom microplates containing 10 μl of strasseriolide C at concentrations ranging from 0.4 to 6.25 μM and grown at 28°C for 72 hours with orbital shaking. ATP standard curves were obtained using concentrations ranging from 0.1 to 100 pmol of ATP disodium salt in 90 μl of LIT medium per well. Both samples and standards were assayed in triplicate. 70 μL of CellTiter-Glo solution were added to treated and control parasites and to the standard curve wells, and luminescence detection was recorded after 15 minutes incubation in a Tecan Infinite 200 microplate reader.
To determine if ATP production was affected by these compounds, we measured intracellular levels in T. cruzi epimastigotes. After 72-hour treatment with strasseriolide C at doses ranging from 0.4 to 6.25 μM, 70 μl of Cell-Titer Glo reagent were added with a multichannel pipette. Plates were incubated at 28°C for 10 minutes, after which luminescence was recorded. Luminescence relative light unit (RLU) values were interpolated in the ATP calibration curve (S4A Fig) and pmol of ATP per well were quantified. Considering proliferation inhibition due to strasseriolide C activity, values were normalized with respect to the number of parasites as determined by counting in a Neubauer chamber using phase contrast microscopy.

[2] = tested on: intracellular T. cruzi amastigotes; experiment: Rate of kill, intracellular T. cruzi amastigotes (CPRG, 96-well); format: cell-based, Trypanosoma cruzi; conditions: for EC90/EC50 / Hill slope / EC50: Amastigotes; for Growth inhibition (%), individual replicates / inhibition at 50 µM: T. cruzi amastigotes, 50 µM; for inhibition at 50 µM / EC50: Trypanosoma cruzi
Procedure: For rate of kill experiments, in vitro activity against intracellular T. cruzi amastigotes was analyzed at early time points: 24, 48 and 72 hours. The standard colorimetric transgenic assay was established in a 96-well format, with serial dilutions of compounds and 0.05% as the final maximal DMSO percentage per well. In these experiments L6 host cells were included as negative controls and CPRG conversion was monitored at 585 nm using a Versamax microplate reader (Molecular devices).

[3] = design: method as in PMID 34865639; conditions: murine model, cited from earlier work

C/C1=C\[C@H](C)C(=O)C[C@@H](O)/C(C)=C/[C@H](C)C[C@@H](C)CC[C@@H]([C@@H](C)C(=O)O)OC(=O)[C@@H](C)C1 [Strasseriolide C, strasseriolide C]
in vivo antiprotozoal activity (Plasmodium berghei): exhibit in vivo antiprotozoal activity
Total counts, individual mouse ([1]; 50 mg/kg i.p. 5 days from 72 h post-infection, 50 mg/kg): 1820000 and 5150000 and 2580000 and 6540000 and 3640000
Total counts, Average ([1]; 50 mg/kg i.p. 5 days from 72 h post-infection): 3940000
parasitaemia in vivo ([1]; acute infection model, 50 mg/Kg i.p., 5 days): lowers parasitaemia
ATP content, Average (pmol ATP/cell) (T. cruzi epimastigotes; 0.390625 µM): 1.759e-5 pmol ATP/cell
ATP content, individual replicates (T. cruzi epimastigotes; 0.390625 µM): 1.792e-5 pmol ATP/cell and 1.833e-5 pmol ATP/cell and 1.6509e-5 pmol ATP/cell
ATP content, Average (pmol ATP/cell) (T. cruzi epimastigotes; 0.78125 µM): 1.732e-5 pmol ATP/cell
ATP content, individual replicates (T. cruzi epimastigotes; 0.78125 µM): 1.756e-5 pmol ATP/cell and 1.79e-5 pmol ATP/cell and 1.649e-5 pmol ATP/cell
ATP content, Average (pmol ATP/cell) (T. cruzi epimastigotes; 1.5625 µM): 1.679e-5 pmol ATP/cell
ATP content, individual replicates (T. cruzi epimastigotes; 1.5625 µM): 1.677e-5 pmol ATP/cell and 1.743e-5 pmol ATP/cell and 1.6178e-5 pmol ATP/cell
ATP content, Average (pmol ATP/cell) (T. cruzi epimastigotes; 3.125 µM): 1.67e-5 pmol ATP/cell
ATP content, individual replicates (T. cruzi epimastigotes; 3.125 µM): 1.693e-5 pmol ATP/cell and 1.736e-5 pmol ATP/cell and 1.58e-5 pmol ATP/cell
ATP content, Average (pmol ATP/cell) (T. cruzi epimastigotes; 6.25 µM): 1.53e-5 pmol ATP/cell
ATP content, individual replicates (T. cruzi epimastigotes; 6.25 µM): 1.501e-5 pmol ATP/cell and 1.61e-5 pmol ATP/cell and 1.48e-5 pmol ATP/cell
cellular ATP pool (T. cruzi epimastigotes; epimastigotes, 72 h, 0.4 to 6.25 μM, normalized to parasite number): discrete reduction
EC90/EC50 ([2]; 24 h): 3.78
Hill slope ([2]; 24 h): 1.70
EC90/EC50 ([2]; 48 h): 2.65
Hill slope ([2]; 48 h): 2.31
EC90/EC50 ([2]; 72 h): 2.43
Hill slope ([2]; 72 h): 2.48
Growth inhibition (%), individual replicates ([2]; 24 h, single replicates): 74.7423%
Growth inhibition (%), individual replicates ([2]; 48 h, single replicates): 94.7649% and 95.5652%
Growth inhibition (%), individual replicates ([2]; 72 h, single replicates): 98.6747% and 99.1566%
inhibition at 50 µM ([2]; 24 h, 24 h, average, read-out: Growth inhibition (%), Average): 73.4%
inhibition at 50 µM ([2]; 24 h, 24 h, single replicates, read-out: Growth inhibition (%), individual replicates): 72.7%
inhibition at 50 µM ([2]; 48 h, 48 h, average, read-out: Growth inhibition (%), Average): 94.9%
inhibition at 50 µM ([2]; 48 h, 48 h, single replicates, read-out: Growth inhibition (%), individual replicates): 94.2%
inhibition at 50 µM ([2]; 72 h, 72 h, average, read-out: Growth inhibition (%), Average): 98.8%
inhibition at 50 µM ([2]; 72 h, 72 h, single replicates, read-out: Growth inhibition (%), individual replicates): 98.6%
EC50 ([2]; 24 h): 10.3 µM
EC50 ([2]; 48 h): 5.25 µM
EC50 ([2]; 72 h): 5.3 µM

C/C1=C\[C@H](C)[C@@H](O)C[C@@H](O)/C(C)=C/[C@H](C)C[C@@H](C)CC[C@@H]([C@@H](C)C(=O)O)OC(=O)[C@@H](C)C1 [Strasseriolide D, strasseriolide D]
in vivo antiprotozoal activity (Plasmodium berghei): exhibit in vivo antiprotozoal activity

O=C(Cn1ccnc1[N+](=O)[O-])NCc1ccccc1 [Benznidazole, benznidazole]
Total counts, individual mouse ([1]; 30 mg/kg i.p. 5 days, 30 mg/kg): 4950000 and 268000 and 48200 and 38100
Total counts, Average ([1]; 30 mg/kg i.p. 5 days): 1330000
Hill slope ([2]; 24 h): 1.06
Hill slope ([2]; 48 h): 1.24
Hill slope ([2]; 72 h): 1.99
EC50 ([2]; 24 h): 2.87 µM
EC50 ([2]; 48 h): 1.03 µM
EC50 ([2]; 72 h): 0.89 µM

C/C1=C\[C@H](C)CC[C@@H](O)/C(C)=C/[C@H](C)C[C@@H](C)CC[C@@H]([C@@H](C)C(=O)O)OC(=O)[C@@H](C)C1 [Strasseriolide B, strasseriolide B]
toxicity in vivo ([3]; listed as B): toxic in vivo
toxicity in vivo ([3]; listed as strasseriolide B): toxic
